# Patent US6962920B2, “Pyrimidine derivatives and methods of making and using these derivatives” (Duquesne University of the Holy Ghost, priority 1992, dated 2005)
# Read-outs that look alike come from different tables or passages of the source.
# What was measured:
# UO-31 = experiment: NCI in vitro anti-cancer activity, Renal Cancer; type: cell-based
# T-47D = experiment: NCI in vitro anti-cancer activity, Breast Cancer; type: cell-based
# COLO 205 = experiment: NCI in vitro anti-cancer activity, Colon Cancer; type: cell-based
# U251 = experiment: NCI in vitro anti-cancer activity, CNS Cancer; type: cell-based
# UACC-62 = experiment: NCI in vitro anti-cancer activity, Melanoma; type: cell-based
# A549/ATCC = type: cell-based
# NCI-H23 = type: cell-based
# CAKI-1 = experiment: NCI in vitro anti-cancer activity, Renal Cancer; type: cell-based
# BT-549 = experiment: NCI in vitro anti-cancer activity, Breast Cancer; type: cell-based
# SN12C = experiment: NCI in vitro anti-cancer activity, Renal Cancer; type: cell-based
# MDA-MB-435 = experiment: NCI in vitro anti-cancer activity, Breast Cancer; type: cell-based
# Tg DHFR = biological target: T1, Tg DHFR (Toxoplasma gondii, UniProt Q07422); experiment: biochemical; type: biochemical
# T1 sequence (Q07422 1-610): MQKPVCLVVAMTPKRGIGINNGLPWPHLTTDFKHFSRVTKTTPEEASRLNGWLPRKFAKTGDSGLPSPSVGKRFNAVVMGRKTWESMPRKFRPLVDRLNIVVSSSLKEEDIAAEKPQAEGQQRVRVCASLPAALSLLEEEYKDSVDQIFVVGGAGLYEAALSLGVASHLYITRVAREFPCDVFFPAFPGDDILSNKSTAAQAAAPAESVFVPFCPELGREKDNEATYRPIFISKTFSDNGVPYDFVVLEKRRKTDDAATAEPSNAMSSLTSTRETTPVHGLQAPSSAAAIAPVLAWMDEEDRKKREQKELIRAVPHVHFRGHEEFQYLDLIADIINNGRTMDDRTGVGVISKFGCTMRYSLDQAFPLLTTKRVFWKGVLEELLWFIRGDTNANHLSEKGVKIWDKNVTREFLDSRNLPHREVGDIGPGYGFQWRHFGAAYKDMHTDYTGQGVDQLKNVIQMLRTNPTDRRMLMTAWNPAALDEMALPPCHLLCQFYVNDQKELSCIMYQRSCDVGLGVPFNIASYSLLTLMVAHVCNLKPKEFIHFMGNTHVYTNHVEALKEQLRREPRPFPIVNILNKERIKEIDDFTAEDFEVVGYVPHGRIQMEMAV
# Description: (§1) The selectivity ratio is a measure of the selectivity of a compound for Pc DHFR or Tg DHFR and is expressed as the IC50 value of the DHFR from rate liver (RL) divided by the IC50 value of either the Pc DHFR or the Tg DHFR, depending on which organism the compounds are being tested against. For example, the selectivity ratio of a compound is calculated by the following formula: [formula]
# SK-MEL-28 = experiment: NCI in vitro anti-cancer activity, Melanoma; type: cell-based
# SNB-19 = experiment: NCI in vitro anti-cancer activity, CNS Cancer; type: cell-based
# Pc DHFR = biological target: T2, Pc DHFR (Pneumocystis carinii, UniProt P16184); experiment: biochemical
# T2 sequence (P16184 1-206): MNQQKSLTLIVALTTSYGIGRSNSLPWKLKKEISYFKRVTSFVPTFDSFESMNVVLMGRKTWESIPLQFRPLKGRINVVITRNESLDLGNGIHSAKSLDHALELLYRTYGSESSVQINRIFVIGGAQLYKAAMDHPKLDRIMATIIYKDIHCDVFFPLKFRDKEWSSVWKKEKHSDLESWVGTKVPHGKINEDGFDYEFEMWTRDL
# MDA-N = experiment: NCI in vitro anti-cancer activity, Breast Cancer; type: cell-based
# SK-OV-3 = experiment: NCI in vitro anti-cancer activity, Ovarian Cancer; type: cell-based
# ACHN = experiment: NCI in vitro anti-cancer activity, Renal Cancer; type: cell-based
# DU-145 = experiment: NCI in vitro anti-cancer activity, Prostate Cancer; type: cell-based
# HCT-15 = experiment: NCI in vitro anti-cancer activity, Colon Cancer; type: cell-based
# M14 = experiment: NCI in vitro anti-cancer activity, Melanoma; type: cell-based
# HS 578T = experiment: NCI in vitro anti-cancer activity, Breast Cancer; type: cell-based
# 786-0 = experiment: NCI in vitro anti-cancer activity, Renal Cancer; type: cell-based
# PC-3 = experiment: NCI in vitro anti-cancer activity, Prostate Cancer; type: cell-based
# MCF7 = experiment: NCI in vitro anti-cancer activity, Breast Cancer; type: cell-based
# A498 = experiment: NCI in vitro anti-cancer activity, renal cancer
# Description: The compounds identified below were further tested for their in vitro anti-cancer activity by the National Cancer Institute.
# RL DHFR = biological target: T3, RL DHFR (Rattus norvegicus, UniProt Q920D2); experiment: Inhibition of DHFR from rat liver; type: biochemical
# T3 construct: Toxoplasmosis gondii (Tg) and rat liver (RL); from tissue; host or cells: rat liver
# T3 sequence (Q920D2 1-187): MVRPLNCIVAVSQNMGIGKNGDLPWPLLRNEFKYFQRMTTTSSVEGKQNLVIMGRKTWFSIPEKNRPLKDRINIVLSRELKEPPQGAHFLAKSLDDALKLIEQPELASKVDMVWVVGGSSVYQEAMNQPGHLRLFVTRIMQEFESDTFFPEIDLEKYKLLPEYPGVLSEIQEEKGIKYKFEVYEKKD
# Description: as §1
# HL-60 (TB) = experiment: NCI in vitro anti-cancer activity, Leukemia; type: cell-based; conditions: Table 29, Leukemia
# [1] = Table 29, Colon Cancer, COLO 205
# [2] = Table 29, Non-Small Cell Lung Cancer
# [3] = Table 29, Non-Small Cell Lung Cancer, NCI-H23
# [4] = Table 29, Breast Cancer, BT-549
# [5] = Table 29, Ovarian Cancer, SK-OV-3
# [6] = Table 29, Prostate Cancer, DU-145
# [7] = Table 29, Prostate Cancer, PC-3
compound,measurement,setting,value
Nc1nc(N)c2c(CNc3ccc(C(=O)N[C@@H](CCC(=O)O)C(=O)O)cc3)c[nH]c2n1 [Compound 9],GI50,"UO-31; Homo sapiens, UO-31, Renal Cancer",< 0.01 µM
same,GI50,"T-47D; Homo sapiens, T47D, Breast Cancer",> 100 µM
same,GI50,"COLO 205; Homo sapiens, COLO 205, Colon Cancer",> 100 µM
same,GI50,"U251; Homo sapiens, U-251, U251, CNS Cancer",< 0.01 µM
same,GI50,"UACC-62; Homo sapiens, UACC-62, Melanoma",< 0.01 µM
same,GI50,"A549/ATCC; Homo sapiens, Non-Small Cell Lung Cancer",< 0.01 µM
same,GI50,"NCI-H23; Homo sapiens, NCI-H23, Non-Small Cell Lung Cancer",0.0575 µM
same,GI50,"CAKI-1; Homo sapiens, CAKI-1, Renal Cancer",< 0.01 µM
same,GI50,"BT-549; Homo sapiens, BT-549, Breast Cancer",> 100 µM
same,GI50,"SN12C; Homo sapiens, Renal Cancer",< 0.01 µM
same,GI50,MDA-MB-435; Homo sapiens,0.687 µM
same,IC50,Tg DHFR,0.21 µM
same,GI50,"SK-MEL-28; Homo sapiens, SK-MEL-28, Melanoma",> 100 µM
same,GI50,"SNB-19; Homo sapiens, SNB-19, CNS Cancer",> 100 µM
same,IC50,Pc DHFR,0.038 µM
same,GI50,"MDA-N; Homo sapiens, Breast Cancer",< 0.01 µM
same,GI50,"SK-OV-3; Homo sapiens, SK-OV-3, Ovarian Cancer",> 100 µM
same,GI50,"ACHN; Homo sapiens, Renal Cancer",< 0.01 µM
same,GI50,"DU-145; Homo sapiens, DU-145, Prostate Cancer",0.0109 µM
same,GI50,"HCT-15; Homo sapiens, HCT-15, Colon Cancer",< 0.01 µM
same,GI50,"M14; Homo sapiens, M14, Melanoma",< 0.01 µM
same,GI50,"HS 578T; Homo sapiens, Breast Cancer",> 100 µM
same,GI50,"786-0; Homo sapiens, 786-0, Renal Cancer",< 0.01 µM
same,GI50,"PC-3; Homo sapiens, PC-3, Prostate Cancer",> 100 µM
same,GI50,"MCF7; Homo sapiens, MCF7, Breast Cancer",< 0.01 µM
COc1cc(CCc2c[nH]c3nc(N)nc(C)c23)cc(OC)c1OC [Compound 113-154A],GI50,"UO-31; Table 29, Renal Cancer, UO-31",34 µM
same,GI50,"T-47D; Table 29, Breast Cancer",60.2 µM
same,GI50,COLO 205; [1],48.2 µM
same,GI50,"U251; Table 29, CNS Cancer, U251",23.4 µM
same,GI50,"UACC-62; Table 29, Melanoma, UACC-62",19.6 µM
same,GI50,A549/ATCC; [2],26.1 µM
same,GI50,NCI-H23; [3],26.9 µM
same,GI50,"CAKI-1; Table 29, Renal Cancer, CAKI-1",49.5 µM
same,GI50,BT-549; [4],19.3 µM
same,GI50,"SN12C; Table 29, Renal Cancer",43.1 µM
same,GI50,A498; A498 renal cancer cell line,selective
same,GI50,"A498; Table 29, Renal Cancer, A498",0.845 µM
same,GI50,"MDA-MB-435; Table 29, Breast Cancer",39.2 µM
same,Selectivity Ratio: RL DHFR/Tg,Tg DHFR; Table 26,0.23
same,IC50,"Tg DHFR; Table 26, read-out: Inhibitory Concentrations (IC50) Tg DHFR",10.2 µM
same,GI50,"SNB-19; Table 29, CNS Cancer, SNB-19",67.4 µM
same,Selectivity Ratio: RL DHFR/Pc DHFR,Pc DHFR; Table 26,0.04
same,IC50,"Pc DHFR; Table 26, read-out: Inhibitory Concentrations (IC50) Pc DHFR",55 µM
same,GI50,"MDA-N; Table 29, Breast Cancer",35.3 µM
same,GI50,SK-OV-3; [5],88.8 µM
same,IC50,"RL DHFR; Table 26, read-out: Inhibitory Concentrations (IC50) RL DHFR",2.3 µM
same,GI50,"ACHN; Table 29, Renal Cancer",35.7 µM
same,GI50,DU-145; [6],75.6 µM
same,GI50,"HCT-15; Table 29, Colon Cancer, HCT-15",24.3 µM
same,GI50,"M14; Table 29, Melanoma, M14",29.8 µM
same,GI50,"HS 578T; Table 29, Breast Cancer",27 µM
same,GI50,"786-0; Table 29, Renal Cancer, 786-0",32.8 µM
same,GI50,HL-60 (TB),41.8 µM
same,GI50,PC-3; [7],22.2 µM
same,GI50,"MCF7; Table 29, Breast Cancer, MCF7",27.2 µM
COc1ccc(CCc2cn(Cc3ccccc3)c3nc(N)nc(C)c23)cc1 [Compound 113-118],GI50,"UO-31; Table 29, Renal Cancer, UO-31",> 100 µM
same,GI50,COLO 205; [1],38.2 µM
same,GI50,"UACC-62; Table 29, Melanoma, UACC-62",80 µM
same,GI50,A549/ATCC; [2],99.8 µM
same,GI50,NCI-H23; [3],97.3 µM
same,GI50,"CAKI-1; Table 29, Renal Cancer, CAKI-1",> 100 µM
same,GI50,BT-549; [4],40.9 µM
same,GI50,"SN12C; Table 29, Renal Cancer",> 100 µM
same,GI50,"A498; Table 29, Renal Cancer, A498",14.2 µM
same,GI50,"MDA-MB-435; Table 29, Breast Cancer",95.4 µM
same,% inhibition Tg DHFR,Tg DHFR; @ 31 μM,15% @ 31 μM
same,GI50,"SK-MEL-28; Table 29, Melanoma, SK-MEL-28",> 100 µM
same,GI50,"SNB-19; Table 29, CNS Cancer, SNB-19",> 100 µM
same,% inhibition Pc DHFR,Pc DHFR; @ 31 μM,60% @
same,GI50,"MDA-N; Table 29, Breast Cancer",78.3 µM
same,GI50,SK-OV-3; [5],> 100 µM
same,% inhibition RL DHFR,RL DHFR; @ 31 μM,48% @
same,GI50,"ACHN; Table 29, Renal Cancer",34.8 µM
same,GI50,DU-145; [6],> 100 µM
same,GI50,"HCT-15; Table 29, Colon Cancer, HCT-15",51.4 µM
same,GI50,"M14; Table 29, Melanoma, M14",93.6 µM
same,GI50,"HS 578T; Table 29, Breast Cancer",< 100 µM
same,GI50,"786-0; Table 29, Renal Cancer, 786-0",> 100 µM
same,GI50,HL-60 (TB),> 100 µM
same,GI50,PC-3; [7],64 µM
same,GI50,"MCF7; Table 29, Breast Cancer, MCF7",29.6 µM
COc1ccccc1CCc1cn(Cc2ccccc2)c2nc(N)nc(C)c12 [Compound 113-148],GI50,"UO-31; Table 29, Renal Cancer, UO-31",4.78 µM
same,GI50,"T-47D; Table 29, Breast Cancer",3.84 µM
same,GI50,COLO 205; [1],11.7 µM
same,GI50,"U251; Table 29, CNS Cancer, U251",10.4 µM
same,GI50,"UACC-62; Table 29, Melanoma, UACC-62",12.3 µM
same,GI50,A549/ATCC; [2],6.46 µM
same,GI50,NCI-H23; [3],8.47 µM
same,GI50,"CAKI-1; Table 29, Renal Cancer, CAKI-1",11.6 µM
same,GI50,BT-549; [4],15.8 µM
same,GI50,"SN12C; Table 29, Renal Cancer",13.3 µM
same,GI50,"A498; Table 29, Renal Cancer, A498",1.94 µM
same,GI50,"MDA-MB-435; Table 29, Breast Cancer",13 µM
same,% inhibition Tg DHFR,Tg DHFR; @ 85 μM,27% @ 85 μM
same,GI50,"SK-MEL-28; Table 29, Melanoma, SK-MEL-28",15.7 µM
same,GI50,"SNB-19; Table 29, CNS Cancer, SNB-19",10.9 µM
same,% inhibition Pc DHFR,Pc DHFR; @ 85 μM,45% @
same,GI50,"MDA-N; Table 29, Breast Cancer",14.7 µM
same,GI50,SK-OV-3; [5],17.3 µM
same,% inhibition RL DHFR,RL DHFR; @ 85 μM,27% @
same,GI50,"ACHN; Table 29, Renal Cancer",7.99 µM
same,GI50,DU-145; [6],13.1 µM
same,GI50,"M14; Table 29, Melanoma, M14",12 µM
same,GI50,"HS 578T; Table 29, Breast Cancer",14.9 µM
same,GI50,"786-0; Table 29, Renal Cancer, 786-0",11.6 µM
same,GI50,HL-60 (TB),4.81 µM
same,GI50,PC-3; [7],9.47 µM
same,GI50,"MCF7; Table 29, Breast Cancer, MCF7",12.6 µM
